{"source": "patent US7754480B2", "about": "“Method of isolating stem cells” (Duke University, priority 1998, dated 2010)", "key": {"ALDH in L1210/cpa cells": {"system": "ALDH in L1210/cpa cells", "experiment": "BAAA staining of cyclophosphamide-resistant ALDH+ L1210/cpa cells, flow cytometry", "format": "cell-based, murine", "from_the_text": "(§1) FIGS. 1A-1D. BAAA staining identifies cells with high levels of ALDH activity. L1210/cpa is a derivative of the L1210 leukemic cell line that overexpresses ALDH. (FIGS. 1A and 1B represent L1210 cells, plus DEAB and minus DEAB, respectively; FIGS. 1C and 1D represent L1210/cpa cells, plus and minus DEAB, respectively).\n(§2) K562, L1210 and L1210/cpa cells (ATCC) were maintained in suspension in RPMI 1640 media supplemented with 10% Fetal Calf Serum (FCS) and 5×10^−5 M β-mercaptoethanol.\n(§3) To assay whether BAAA would permit the specific selection of ALDH^+ cells, studies initially determined an optimal response dose for the BAAA reagent in a murine cell line previously selected for cylophoshamide-resistance, L1210/cpa, that is known to be ALDH^+ (FIG. 1). The parental cell line, L1210 (FIGS. 1A and 1B) is cylophosphamide-sensitive and ALDH^−. […] In these studies, the BAAA could be used at a final concentration as low as 5 μM. This molar concentration is 10-fold lower than that used with the dansylated reagent."}, "[1]": {"system": "human ALDH1 in K562 cells", "experiment": "BAAA staining of K562 cells expressing ALDH1", "format": "cell-based", "method": "as §2\nMultiple different ALDH isoenzymes exist and these may display different abilities to convert BAAA. […] Therefore, a human cell line known to express ALDH1, K562, was assayed with this novel reagent."}, "ALDH in UCB cells": {"system": "ALDH in UCB cells", "experiment": "BAAA staining of mononuclear umbilical cord blood (UCB) cells, flow cytometry", "format": "cell-based, human", "method": "Human umbilical cord blood (UCB), intended for disposal, was collected into sterile bottles containing anticoagulant citrate buffer. The UCB used in these studies were processed within 24 hours of being harvested. White cells were enriched through a preliminary red cell agglutination where the UCB was diluted 1:2 with Dulbecco's phosphate buffered saline (PBS) at room temperature. These cells were then brought to a final concentration of 1% Hespan (DuPont Pharma, Wilmington, Del.) and were left to stand undisturbed for 1 hour. Non-agglutinated white blood cells were harvested and residual red cells were hemolysed at 37° C. in 0.17 M NH4Cl containing 10 mM Tris-HCl, pH 7.2 and […] EDTA. The recovered cells were washed in IMDM containing 2% FCS and mononuclear cells are then purified using Ficoll-Hypaque (1.077 g/ml). When held overnight, the cells were kept on ice in a 4° C. refrigerated room in IMDM with 20% FCS.\nMononuclear UCB cells were resuspended at 10^6 cells/ml in IMDM containing 2% FCS and were labeled with 1 μM BAAA for 30 min. When used, verapamil was included at […]. After staining, the cells were washed with ice cold staining media and maintained on ice until their analysis and sorting. The cells were then resuspended in staining media with […] 7-aminoactinomycin D (7AAD) (Molecular Probes; Eugene, OR). For antibody staining to permit multiparameter analyses, the cells were resuspended in staining media (100 μl) and antibodies were added directly to the cell suspensions. The cells were incubated on ice for 20 min. and then washed again in ice cold staining media. The cells were then analyzed or sorted on a FAC Star Plus cell sorter (BDIS) equipped with dual Coherent I -90 argon-dye laser. The BAAA was excited at 488 nm and emissions were detected using 515 DF20filter in FL1. Dead and dying cells were excluded on the basis of their high emission in the far red wavelength due to their uptake of 7AAD.\nUmbilical Cord Blood (UCB) was chosen for its increasing promise as a source for transplantable hematopoietic stem cells. […]"}, "[2]": {"system": "human hematopoietic cells", "experiment": "Preliminary DAAA staining of human hematopoietic cells, flow cytometry", "format": "cell-based", "settings": "signal intensity too high in flow cytometry", "from_the_text": "Preliminary studies using DAAA indicate that this reagent is unusable on preparations of human hematopoietic cells because the signal intensity of the reagent is too high to resolve discrete cell populations by flow cytometry. The present invention provides a fluorescent ALDH substrate that is free of the problems associated with DAAA and that can be used in the purification of primitive human hematopoietic cells."}, "[3]": {"system": "MDR efflux pump in UCB cells", "experiment": "Efflux of converted BAAA from UCB cells with or without verapamil", "settings": "product of the ALDH conversion of BAAA", "protocol": "When used, verapamil was included at 50 mM. After staining, the cells were washed with ice cold staining media and maintained on ice until their analysis and sorting. The cells were then resuspended in staining media with 10 mg/ml 7-aminoactinomycin D (7AAD) (Molecular Probes; Eugene, OR). For antibody staining to permit multiparameter analyses, the cells were resuspended in staining media (100 μl) and antibodies were added directly to the cell suspensions. The cells were incubated on ice for 20 min. and then washed again in ice cold staining media. The cells were then analyzed or sorted on a FAC Star Plus cell sorter (BDIS) equipped with dual Coherent I -90 argon-dye laser. […] Dead and dying cells were excluded on the basis of their high emission in the far red wavelength due to their uptake of 7AAD.\nSince this reagent had never been previously characterized, the susceptibility of converted BAAA to MDR efflux was assayed. Although BODIPY aminoacetaldehyde passes through the cell membrane without active transport, the product of the ALDH conversion (BODIPY aminoacetate) might well be a substrate for the MDR pump."}, "[4]": {"experiment": "Stability of BODIPY aminoacetaldehyde diethyl acetal on storage and in 1 N HCl", "format": "physicochemical", "method": "The aldehyde dehydrogenase substrate is prepared as BODIPY aminoacetaldehyde diethyl acetal and lyophilized in 0.5 micromole aliquots. […] The acetal is then solubilized in DMSO to a final concentration of 5 mM. […] To convert the acetal to an acetaldehyde, aliquots of this solution are brought to a final concentration of 1 N HCl. […] After 2 hours in 1 N HCl, the vast majority of the BODIPY aminoacetaldehyde diethyl acetal has converted to BODIPY aminoacetaldehyde (BAAA), and is then diluted to […] in Dulbecco's phosphate buffered saline (PBS). This stock is added directly to cells prepared in Iscove's Modified Dulbecco's Medium (IMDM) with 2% FCS at concentrations ranging from 1 to 5 μM.)(See also FIG. 6.)."}, "[5]": {"experiment": "Solubility and membrane permeability of the aldehyde reagent (BAAA)", "format": "physicochemical", "method": "Due to the inherent instability of aldehydes in aqueous solution, the reagent is prepared and stored as an acetal. […] Intracellular fluorescence can be used to select cells."}, "L1210 cells": {"system": "L1210 cells", "experiment": "BAAA staining of parental ALDH- L1210 cells, flow cytometry", "format": "cell-based, murine", "settings": "cyclophosphamide-sensitive parental L1210", "from_the_text": "as §1, §2, §3"}}, "data": [{"smiles": "CCN(CC)c1ccc(C=O)cc1", "note": "[DEAB, diethylbenzaldehyde, reference compound]", "values": [{"measurement": "block of the BAAA fluorescent response", "setting": "ALDH in L1210/cpa cells; 10-fold molar excess of DEAB, L1210/cpa", "result": "totally blocked"}, {"measurement": "inhibition of the BAAA response", "setting": "[1]", "result": "entirely inhibited"}, {"measurement": "inhibition of the BAAA response", "setting": "ALDH in UCB cells; excess DEAB, UCB cells", "result": "inhibited"}]}, {"smiles": "CN(C)c1cccc2c(S(=O)(=O)NCC=O)cccc12", "note": "[DAAA, dansyl aminoacetaldyde]", "values": [{"measurement": "usability for resolving discrete cell populations", "setting": "[2]", "result": "unusable"}]}, {"smiles": "CC1=CC(C)=[N+]2C1=Cc1ccc(CCC(=O)NCC(=O)O)n1[B-]2(F)F", "note": "[BODIPY Aminoacetate, BODIPY aminoacetate]", "values": [{"measurement": "substrate status for the MDR efflux pump", "setting": "[3]", "result": "Substrate for the MDR Efflux Pump"}]}, {"smiles": "CCOC(CNC(=O)CCC1=[N+]2C(=Cc3c(C)cc(C)n3[B-]2(F)F)C=C1)OCC", "note": "[BODIPY aminoacetaldehyde diethyl acetal]", "values": [{"measurement": "stability of solution in DMSO", "setting": "[4]; 5 mM in DMSO at 4° C.", "result": "up to 1 week"}, {"measurement": "half life of the acetal", "setting": "[4]; 1 N HCl, conversion to the acetaldehyde", "result": 15, "unit": "min"}, {"measurement": "stability of lyophilized aliquots", "setting": "[4]; lyophilized 0.5 micromole aliquots stored at -20° C.", "result": "stable indefinitely"}]}, {"smiles": "Cc1cc(C)n2c1C=C1C=CC(CCC(=O)NCC=O)=[N+]1[B-]2(F)F", "note": "[BAAA, BODIPY aminoacetaldehyde]", "values": [{"measurement": "solubility in PBS", "setting": "[5]", "result": "freely soluble"}, {"measurement": "molar concentration relative to the dansylated reagent (fold lower)", "setting": "ALDH in L1210/cpa cells; 5 μM BAAA vs dansylated reagent", "result": 10, "unit": "fold"}, {"measurement": "detection of ALDH+ cells", "setting": "ALDH in L1210/cpa cells; L1210/cpa", "result": "able to detect ALDH^+ cells"}, {"measurement": "lowest usable final concentration", "setting": "ALDH in L1210/cpa cells; continuous cell lines", "result": 5, "unit": "µM"}, {"measurement": "fluorescent response to BAAA", "setting": "L1210 cells", "result": "essentially no response"}, {"measurement": "conversion of BAAA / ALDH positivity", "setting": "[1]", "result": "positive for ALDH"}, {"measurement": "molar concentration relative to dansyl aminoacetaldehyde (fold lower)", "setting": "ALDH in UCB cells; 1 μM BAAA vs concentration of DAAA used for murine PHSC", "result": 50, "unit": "fold"}, {"measurement": "optimal concentration for resolving ALDH^br subpopulations", "setting": "ALDH in UCB cells; UCB cells 10^6 cells/ml, IMDM 2% FCS", "result": 1, "unit": "µM"}]}]}
